# Data as given in US9890133B2 (priority 2011, dated 2018).
# Assays:
# in vitro = settings: human
# Poliovirus 3 = test: microbe, parasite or virus in culture; assay type: cell-based; settings: Enterovirus C, read-out: Poliovirus3 EC50
smiles,measurement,setting,value
"O=C1c2ccccc2C2(O)Oc3c(ccc4ccccc34)C12O (stereo not shown) [Example 16, 6b,11b-Dihydroxy-6bH-indeno[1,2-b]naphtho[2,1-d]furan-7(11 bH)-one]",melting point,,216 to 218 °C
same,CC50,in vitro; Picorana CC50,7.82 µg/mL
"CC(C)c1ccc2c(c1)OC1(O)c3c(N)ccc(N)c3C(=O)C21O (stereo not shown) [Example 61, 1,4-diamino-4b,9b-dihydroxy-7-isopropyl-4bH-benzo[d]indeno[1,2-b]furan-10(9bH)-one]",melting point,,223 to 231 °C
same,CC50,in vitro; Picorana CC50,> 50 µg/mL
"COC(=O)Nc1cccc2c1C(=O)C1(O)c3ccc(C(C)C)cc3OC21O (stereo not shown) [Example 49, Methyl 4b,9b-dihydroxy-7-isopropyl-10-oxo-9b,10-dihydro-4bH-benzo[d]indeno[1,2-b]furan-1-ylcarbamate]",melting point,,96 to 99 °C
same,CC50,in vitro; Picorana CC50,9.18 µg/mL
"CC(C)(C)c1cc(C(C)(C)C)c2c(c1)C1(O)C(=O)c3ccccc3C1(O)O2 (stereo not shown) [Example 24, 6,8-di-tert-Butyl-4b,9b-dihydroxy-4bH-benzo[d]indeno[1,2-b]furan-10(9bH)-one]",melting point,,200 to 203 °C
same,CC50,in vitro; Picorana CC50,8.8 µg/mL
"CC(C)OC(=O)Nc1cccc2c1C(=O)C1(O)c3ccc(C(C)C)cc3OC21O (stereo not shown) [Example 29, Isopropyl 4b,9b-dihydroxy-7-isopropyl-10-oxo-9b,10-dihydro-4bH-benzo[d]indeno[1,2-b]furan-1-ylcarbamate]",melting point,,200 to 202 °C
same,CC50,in vitro; Picorana CC50,7.49 µg/mL
"CCOC(=O)OC12Oc3cc(C(C)C)ccc3C1(O)C(=O)c1ccccc12 (stereo not shown) [Example 38, Ethyl 9b-hydroxy-7-isopropyl-10-oxo-9b,10-dihydro-4bH-benzo[d]indeno[1,2-b]furan-4b-yl carbonate]",melting point,,144 to 147 °C
same,CC50,in vitro; Picorana CC50,9.5 µg/mL
"O=C1c2ccccc2C2(O)Oc3cc4ccccc4cc3C12O (stereo not shown) [Example 15, 4b,11b-Dihydroxy-4bH-indeno[1,2-b]naphtho[2,3-d]furan-12(11 bH)-one]",melting point,,220 to 221 °C
same,CC50,in vitro; Picorana CC50,8.57 µg/mL
"COc1ccc2c(c1)C1(O)C(=O)c3ccccc3C1(O)O2 (stereo not shown) [Example 12, 4b,9b-Dihydroxy-8-methoxy-4bH-benzo[d]indeno[1,2-b]furan-10(9bH)-one]",melting point,,186 to 189 °C
same,CC50,in vitro; Picorana CC50,> 50 µg/mL
"O=C1c2ccccc2C2(O)Oc3c(ccc(Cl)c3Cl)C12O (stereo not shown) [Example 8, 6,7-Dichloro-4b,9b-dihydroxy-4bH-benzo[d]indeno[1,2-b]furan-10(9bH)-one]",melting point,,142 to 150 °C
same,CC50,in vitro; Picorana CC50,44.1 µg/mL
"C=CC(=O)OC12Oc3cc(C(C)C)ccc3C1(O)C(=O)c1ccccc12 (stereo not shown) [Example 35, 9b-Hydroxy-7-isopropyl-10-oxo-9b,10-dihydro-4bH-benzo[d]indeno[1,2-b]furan-4b-yl acrylate]",melting point,,95 to 97 °C
same,CC50,in vitro; Picorana CC50,46.7 µg/mL
"CCCc1ccc2c(c1)C1(O)C(=O)c3ccccc3C1(O)O2 (stereo not shown) [Example 17, 4b,9b-Dihydroxy-8-propyl-4bH-benzo[d]indeno[1,2-b]furan-10(9bH)-one]",melting point,,126 to 127 °C
same,CC50,in vitro; Picorana CC50,7.85 µg/mL
"CCc1ccc2c(c1)C1(O)C(=O)c3ccccc3C1(O)O2 (stereo not shown) [Example 18, 8-Ethyl-4b,9b-dihydroxy-4bH-benzo[d]indeno[1,2-b]furan-10(9bH)-one]",melting point,,157 to 159 °C
same,CC50,in vitro; Picorana CC50,37.5 µg/mL
"CCCC(=O)NC12C(=O)c3c(N)cccc3C1(O)Oc1cc(C(C)C)ccc12 (stereo not shown) [Example 144, N-(1-Amino-4b-hydroxy-7-isopropyl-10-oxo-9b,10-dihydro-4bH-indeno[1,2-b]benzofuran-9b-yl) butyramide]",EC50,Poliovirus 3,< 0.01 µg/mL
same,CC50,in vitro,21.7 µg/mL
same,CC50,in vitro; Picorana CC50,35.5 µg/mL
"CCOC(=O)OC12Oc3cc(C(C)C)ccc3C1(NC(C)=O)C(=O)c1c(N)cccc12 (stereo not shown) [Example 123, 9b-Acetamido-1-amino-7-isopropyl-10-oxo-9b,10-dihydro-4bH-benzo[d]indeno[1,2-b]furan-4b-yl ethyl carbonate]",EC50,Poliovirus 3,< 0.01 µg/mL
same,CC50,in vitro,43.4 µg/mL
same,CC50,in vitro; Picorana CC50,37.5 µg/mL
"CC(C)c1ccc2c(c1)OC1(O)c3cccc(N)c3C(=O)C21NC(=O)c1nc2ccccc2[nH]1 (stereo not shown) [Example 290, N-(1-Amino-4b-hydroxy-7-isopropyl-10-oxo-9b,10-dihydro-4bH-indeno[1,2-b]benzofuran-9b-yl)-1H-benzo[d]imidazole-2-carboxamide]",EC50,Poliovirus 3,0.032 µg/mL
same,CC50,in vitro,4.51 µg/mL
same,CC50,in vitro; Picorana CC50,4.32 µg/mL
CCOC(=O)N[C@@]12C(=O)c3ccccc3[C@]1(O)Oc1cc(C(C)C)ccc12,melting point,,115 to 118 °C
"COC(=O)c1ccc(C(=O)NC23C(=O)c4c(N)cccc4C2(O)Oc2cc(C(C)C)ccc23)cc1 (stereo not shown) [Example 189, Methyl-4-(1-amino-4b-hydroxy-7-isopropyl-10-oxo-9b,10-dihydro-4bH-benzo[d]indeno[1,2-b]furan-9b-ylcarbamoyl)benzoate]",EC50,Poliovirus 3,< 0.01 µg/mL
same,CC50,in vitro,> 10 µg/mL
same,CC50,in vitro; Picorana CC50,8.56 µg/mL
"CC(C)c1ccc2c(c1)OC1(O)c3cccc(N)c3C(=O)C21NC(=O)C(=O)c1cccs1 (stereo not shown) [Example 231, N-(1-Amino4b-hydroxy-7-isopropyl-10-oxo-9b,10-dihydro-4bH-indeno[1,2-b]benzofuran-9b-yl)-2-oxo-2-(thiophen-2-yl)acetamide]",EC50,Poliovirus 3,< 0.01 µg/mL
same,CC50,in vitro,> 10 µg/mL
same,CC50,in vitro; Picorana CC50,8.64 µg/mL
"Cc1ccnc2nc(C(=O)NC34C(=O)c5c(N)cccc5C3(O)Oc3cc(C(C)C)ccc34)nn12 (stereo not shown) [Example 281, N-(1-Amino-4b-hydroxy-7-isopropyl-10-oxo-9b,10-dihydro-4bH-indeno[1,2-b]benzofuran-9b-yl)-7-methyl-[1,2,4]triazolo[1,5-a]pyrimidine-2-carboxamide]",EC50,Poliovirus 3,0.025 µg/mL
same,CC50,in vitro,> 10 µg/mL
"CC(C)c1ccc2c(c1)OC1(O)c3cccc(N)c3C(=O)C21NC(=O)c1ncccc1O (stereo not shown) [Example 257, N-(1-Amino-4b-hydroxy-7-isopropyl-10-oxo-9b,10-dihydro-4bH-indeno[1,2-b]benzofuran-9b-yl)-3-hydroxypicolinamide]",EC50,Poliovirus 3,0.031 µg/mL
same,CC50,in vitro,> 10 µg/mL
"Cc1cc(C)cc(C(=O)NC23C(=O)c4c(N)cccc4C2(O)Oc2cc(C(C)C)ccc23)c1 (stereo not shown) [Example 191, N-(1-Amino-4b-hydroxy-7-isopropyl-10-oxo-9b,10-dihydro-4bH-indeno[1,2-b]benzofuran-9b-yl)-3,5-dimethylbenzamide]",EC50,Poliovirus 3,< 0.01 µg/mL
same,CC50,in vitro,> 10 µg/mL
same,CC50,in vitro; Picorana CC50,4.12 µg/mL
"CC(C)c1ccc2c(c1)OC1(O)c3cccc(N)c3C(=O)C21NC(=O)c1ccnnc1 (stereo not shown) [Example 276, N-(1-Amino-4b-hydroxy-7-isopropyl-10-oxo-9b,10-dihydro-4bH-indeno[1,2-b]benzofuran-9b-yl)pyridazine-4-carboxamide]",EC50,Poliovirus 3,< 0.01 µg/mL
same,CC50,in vitro,> 10 µg/mL
"CC(C)c1ccc2c(c1)OC1(O)c3cccc(N)c3C(=O)C21NC(=O)c1ccc(Cl)cc1 (stereo not shown) [Example 155, N-(1-Amino-4b-hydroxy-7-isopropyl-10-oxo-9b,10-dihydro-4bH-indeno[1,2-b]benzofuran-9b-yl)-4-chlorobenzamide]",EC50,Poliovirus 3,< 0.01 µg/mL
same,CC50,in vitro,7.81 µg/mL
same,CC50,in vitro; Picorana CC50,9.02 µg/mL
"CC(C)c1ccc2c(c1)OC1(O)c3cccc(N)c3C(=O)C21NC(=O)c1nccc2ccccc12 (stereo not shown) [Example 266, N-(1-Amino-4b-hydroxy-7-isopropyl-10-oxo-9b,10-dihydro-4bH-benzo[d]indeno[1,2-b]furan-9b-yl)isoquinoline-1-carboxamide]",EC50,Poliovirus 3,< 0.01 µg/mL
same,CC50,in vitro,> 10 µg/mL
same,CC50,in vitro; Picorana CC50,6.41 µg/mL
"CC(C)c1ccc2c(c1)OC1(O)c3cccc(N)c3C(=O)C21NC(=O)C(F)(F)F (stereo not shown) [Example 175, N-(1-Amino-4b-hydroxy-7-isopropyl-10-oxo-9b,10-dihydro-4bH-indeno[1,2-b]benzofuran-9b-yl)-2,2,2-trifluoroacetamide]",EC50,Poliovirus 3,< 0.01 µg/mL
same,CC50,in vitro,> 10 µg/mL
same,CC50,in vitro; Picorana CC50,> 11 µg/mL
"CC(C)c1ccc2c(c1)OC1(O)c3cccc(N)c3C(=O)C21NC(=O)CF (stereo not shown) [Example 193, N-(1-Amino-4b-hydroxy-7-isopropyl-10-oxo-9b,10-dihydro-4bH-benzo[d]indeno[1,2-b]furan-9b-yl)-2-fluoroacetamide]",EC50,Poliovirus 3,0.011 µg/mL
same,CC50,in vitro; Picorana CC50,> 10 µg/mL
same,CC50,in vitro; Rhino CC50,> 10 µg/mL
"COc1cccc(C(=O)NC23C(=O)c4c(N)cccc4C2(O)Oc2cc(C(C)C)ccc23)c1 (stereo not shown) [Example 154, N-(1-Amino-4b-hydroxy-7-isopropyl-10-oxo-9b,10-dihydro-4bH-indeno[1,2-b]benzofuran-9b-yl)-3-methoxybenzamide]",EC50,Poliovirus 3,< 0.01 µg/mL
same,CC50,in vitro,22.7 µg/mL
same,CC50,in vitro; Picorana CC50,46.2 µg/mL
"CC(C)c1ccc2c(c1)OC1(O)c3cccc(N)c3C(=O)C21NC(=O)c1ccco1 (stereo not shown) [Example 201, N-(1-Amino-4b-hydroxy-7-isopropyl-10-oxo-9b,10-dihydro-4bH-indeno[1,2-b]benzofuran-9b-yl)furane-2-carboxamide]",EC50,Poliovirus 3,< 0.01 µg/mL
same,CC50,in vitro,> 10 µg/mL
"CC(C)c1ccc2c(c1)OC1(O)c3cccc(N)c3C(=O)C21NC(=O)c1cccc[n+]1[O-] (stereo not shown) [Example 253, 2-((1-Amino-4b-hydroxy-7-isopropyl-10-oxo-9b,10-dihydro-4bH-indeno[1,2-b]benzofuran-9b-yl)carbamoyl)pyridine 1-oxide]",EC50,Poliovirus 3,< 0.01 µg/mL
same,CC50,in vitro,> 10 µg/mL
"CCCCOC(=O)OC12Oc3cc(C(C)C)ccc3C1(NC(C)=O)C(=O)c1c(N)cccc12 (stereo not shown) [Example 115, 9b-Acetamido-1-amino-7-isopropyl-10-oxo-9b,10-dihydro-4bH-benzo[d]indeno[1,2-b]furan-4b-yl butyl carbonate]",EC50,Poliovirus 3,< 0.01 µg/mL
same,CC50,in vitro,23.1 µg/mL
same,CC50,in vitro; Picorana CC50,42.8 µg/mL
"CC(C)c1ccc2c(c1)OC1(O)c3cccc(N)c3C(=O)C21NC(=O)c1n[nH]c2ccccc12 (stereo not shown) [Example 212, N-(1-Amino-4b-hydroxy-7-isopropyl-10-oxo-9b,10-dihydro-4bH-benzo[d]indeno[1,2-b]furan-9b-yl)-1H-indazole-3-carboxamide]",EC50,Poliovirus 3,< 0.01 µg/mL
same,CC50,in vitro,> 10 µg/mL
"CC(C)c1ccc2c(c1)OC1(O)c3cccc(N)c3C(=O)C21NC(=O)c1cc(C(F)(F)F)ccn1 (stereo not shown) [Example 244, N-(1-Amino-4b-hydroxy-7-isopropyl-10-oxo-9b,10-dihydro-4bH-benzo[d]indeno[1,2-b]furan-9b-yl)-4-(trifluoromethyl)picolinamide]",EC50,Poliovirus 3,< 0.01 µg/mL
same,CC50,in vitro,> 10 µg/mL
same,CC50,in vitro; Picorana CC50,15.7 µg/mL
